# Results: patent US20200031848A1, “AR-V7 INHIBITORS” (Hoffmann-La Roche Inc., priority 2016, published 2020)
# pIC50: −log10 of the molar value.
# What was measured:
# [1] = biological target: T1, AR transcriptional activity (Homo sapiens, UniProt P10275, T878A); assay: eGFP cellular AR transcription assay; format: cell-based; conditions: LNCaP eGFP cell line
# T1 construct: The LNCaP eGFP cell line was stably transfected with an androgen-responsive probasin-derived promoter fused to an eGFP reporter; endogenous in cells; host or cells: LNCaP eGFP (LN-ARR2PB-eGFP) human prostate cancer cells
# T1 sequence (P10275 1-920 T878A): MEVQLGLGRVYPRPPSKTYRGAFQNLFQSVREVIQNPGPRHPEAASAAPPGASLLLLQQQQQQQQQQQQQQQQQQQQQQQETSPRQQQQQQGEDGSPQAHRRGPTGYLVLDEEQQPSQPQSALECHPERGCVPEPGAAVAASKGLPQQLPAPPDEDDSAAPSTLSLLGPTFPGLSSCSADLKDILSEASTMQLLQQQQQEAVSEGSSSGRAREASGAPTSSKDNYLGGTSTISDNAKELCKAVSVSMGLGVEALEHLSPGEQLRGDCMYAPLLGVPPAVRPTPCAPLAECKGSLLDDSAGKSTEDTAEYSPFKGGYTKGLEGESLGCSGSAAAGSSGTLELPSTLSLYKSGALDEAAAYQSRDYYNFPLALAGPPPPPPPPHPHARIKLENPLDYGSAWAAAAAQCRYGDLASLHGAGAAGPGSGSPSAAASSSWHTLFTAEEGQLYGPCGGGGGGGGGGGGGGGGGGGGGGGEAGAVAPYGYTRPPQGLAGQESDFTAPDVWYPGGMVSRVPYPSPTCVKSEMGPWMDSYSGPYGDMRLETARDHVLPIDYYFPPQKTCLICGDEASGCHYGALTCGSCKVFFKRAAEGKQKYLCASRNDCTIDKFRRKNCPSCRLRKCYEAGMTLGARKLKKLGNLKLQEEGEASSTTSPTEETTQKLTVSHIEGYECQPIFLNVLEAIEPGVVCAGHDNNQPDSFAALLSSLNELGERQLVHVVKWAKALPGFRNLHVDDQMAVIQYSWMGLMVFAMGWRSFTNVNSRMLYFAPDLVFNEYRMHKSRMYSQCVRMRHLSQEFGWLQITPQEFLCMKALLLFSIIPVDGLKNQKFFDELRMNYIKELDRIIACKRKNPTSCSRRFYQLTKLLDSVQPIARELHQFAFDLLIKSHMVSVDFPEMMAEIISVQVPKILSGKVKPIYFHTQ
# From the text: The DNA-binding domain is an attractive target for inhibition of AR dimerization and/or DNA binding. In silico computational drug discovery methods were used to conduct a virtual screen of >3 million purchasable lead-like compounds from the ZINC database (Irwin, J. et al.^11) to identify potential DBD binders. The in silico methods included large-scale docking, in-site rescoring and consensus voting procedures. It will be understood by a person of skill that COOH and NR2 may include the corresponding ions, for example carboxylate ions and ammonium ions, respectively. Alternatively, where the ions are shown, a person of skill in the art will appreciate that the counter ion may also be present. Furthermore, it will be appreciated by a person of skill that other moieties may include the corresponding ions, and where the ions are shown, a person of skill in the art will appreciate that the counter ion may also be present. […] Where the % inhibition, eGFP IC50 or the PSA IC50 has no value given, this may be because no measurement was taken or the value was not calculated, in the case of the % inhibition. In vitro identification of AR inhibitors targeting AR DBD The selected compounds were assessed with a non-destructive eGFP assay that quantifies levels of AR transcriptional activity, were identified (table below).
# (§1) 1. Cell Culture: LNCaP and PC3 human prostate cancer cells were obtained from American Type Culture Collection (ATCC, Manassas, Va.) and grown in RPMI 1640 medium supplemented with 5% fetal bovine serum (FBS) (Invitrogen). The LNCaP eGFP cell line was stably transfected with an androgen-responsive probasin-derived promoter fused to an eGFP reporter (LN-ARR2PB-eGFP) using a lentiviral approach, and were grown in phenol-red-free RPMI 1640 supplemented with 5% CSS. In-house developed MDV3100-resistant LNCaP cells were cultured in RPMI 1640 supplemented with 5% FBS and 10 μM MDV3100. All cells were maintained at 37° C. in 5% CO2.
# 2. eGFP cellular AR transcription assay: The AR transcriptional activity was assayed as previously described (Tavassoli, P., et al.^12).
# [2] = tested on: PSA levels secreted into the media; assay: Prostate-specific antigen (PSA) assay; format: cell-based; conditions: Homo sapiens, 72 h; in parallel to the eGFP assay, same plates, 3 days
# Method: as §1
# 3. Prostate-specific antigen (PSA) assay: The evaluation of PSA levels secreted into the media was performed in parallel to the eGFP assay using the same plates. After cells were incubated for 3 days, 150 μl of the media was taken from each well, and added to 150 μl of PBS. PSA levels were then evaluated using Cobas e 411 analyzer instrument (Roche Diagnostics) according to the manufacturer's instructions.
# in vitro = conditions: human, microsomes, pH 7.4
# Method: Microsomal incubations were carried out in 96-well plates in 5 aliquots of 40 μL each (one for each time point). […] Control incubations were performed replacing the NADPH-cofactor system with PBS. […] Incubations were performed in duplicates. Five time points over 40 minutes had been analyzed. The reactions were stopped by adding 12 volumes of 90% acetonitrile-water to incubation aliquots, followed by protein sedimentation by centrifuging at 5500 rpm for 5 minutes. Supernatants were analyzed using the HPLC system coupled with tandem mass spectrometer. The elimination constant (kel), half-life (t1/2) and intrinsic clearance (Clint) were determined in plot of […] versus time, using linear regression analysis: […]
Structure (SMILES),pIC50 [1],pIC50 [2],microsomal CLint at 2 μM (in vitro) [µL/min/mg]
"Clc1c(Br)ncn1-c1csc(N2[C@@H]3CCC[C@H]2COC3)n1 [Example 9, (1R,5S)-9-[4-(4-bromo-5-chloro-imidazol-1-yl)thiazol-2-yl]-3-oxa-9-azabicyclo[3.3.1]nonane]",6.13,6.11,–
"Brc1cn(-c2csc(N3[C@@H]4CC[C@H]3COC4)n2)c(Br)n1 [Example 10, (1R,5S)-8-[4-(2,4-dibromoimidazol-1-yl)thiazol-2-yl]-3-oxa-8-azabicyclo[3.2.1]octane]",6.03,6.09,–
"Brc1cn(-c2csc(N3CCOCC3)n2)c(Br)n1 [Example 40, 4-[4-(2,4-dibromoimidazol-1-yl)thiazol-2-yl]morpholine]",6.38,6.38,177
"CSc1nc(Br)cn1-c1csc(N2CCOCC2)n1 [Example 41, 4-[4-(4-bromo-2-methylsulfanyl-imidazol-1-yl)thiazol-2-yl]morpholine]",6.30,6.34,198
"Cc1nc(Br)cn1-c1csc(N2CCOCC2)n1 [Example 42, 4-[4-(4-bromo-2-methyl-imidazol-1-yl)thiazol-2-yl]morpholine]",6.12,6.18,72
"Brc1ncn(-c2csc(N3CCOCC3)n2)c1Br [Example 43, 4-[4-(4,5-dibromoimidazol-1-yl)thiazol-2-yl]morpholine]",5.91,5.86,165
